In ChEMBL document CHEMBL1129846, “Synthesis and antiproliferative activity of 2-O-allyl-1--D-arabinofuranosyl-uracil, -cytosine and -adenine” (Bioorg Med Chem Lett, 1997):

Tests used:
Type in all cases: functional, cell-based
L1210 = test: Tested for its antiproliferative activity on murine leukemia L1210 cells; conditions: Mus musculus
[1] = Compound was evaluated for its antiproliferative activity on human T-lymphocyte CEM cells; conditions: CCRF-CEM
[2] = Compound was evaluated for its antiproliferative activity on human T-lymphocyte Molt4/C8 cells; conditions: MOLT-4

Row | IC50 (L1210) [µM] | Structure (SMILES) | IC50 [1] [µM] | IC50 [2] [µM]
1 | 0.031 | Nc1ccn([C@@H]2O[C@H](CO)[C@@H](O)[C@@H]2O)c(=O)n1 [CYTARABINE] | 0.0037 | 0.03
2 | > 500 | C=CCO[C@H]1[C@H](O)[C@@H](CO)O[C@H]1n1ccc(=O)[nH]c1=O | > 500 | > 500
3 | 14.2 | Nc1ncnc2c1ncn2[C@@H]1O[C@H](CO)[C@@H](O)[C@@H]1O [VIDARABINE] | 24.8 | 11.9
4 | 127 | C=CCO[C@H]1[C@H](O)[C@@H](CO)O[C@H]1n1ccc(N)nc1=O | 127 | 588
5 | 250 | C=CCO[C@H]1[C@H](O)[C@@H](CO)O[C@H]1n1cnc2c(N)ncnc21 | 72 | 88
6 | > 200 | O=c1ccn([C@@H]2O[C@H](CO)[C@@H](O)[C@H]2O)c(=O)[nH]1 [URIDINE] | > 200 | > 200
